Source: patent US6664393B2 (priority 1999, dated 2003)
Where two headings read alike, the source gives them in different places.

Tests used:
human factor Xa = biological target: T1, human factor Xa (Homo sapiens, UniProt P00742); test: Factor Xa assay (chromogenic, substrate S-2765); assay type: biochemical
T1 construct: purchased Enzyme Research Laboratories, Inc; South Bend, Ind
Protocol: (§1) Purified enzymes are used in chromogenic assays.
(§2) Ki=IC50/{1+(substrate concentration/Km)}
The assay was performed by pre-incubating the compound of interest of formula I plus enzyme for 10 min. The assay was then initiated by adding substrate to obtain a final volume of 100 μl. The initial velocity of chromogenic substrate hydrolysis was measured by the change in absorbance at 405 nm using a Bio-tek Instruments kinetic plate reader (Ceres UV9OOHDi) at 25° C. during the linear portion of the time course (usually 1.5 min after addition of substrate).

[1] = biological target: T2, factor VIIa/tissue factor (Homo sapiens, UniProt P08709); test: Factor VIIa assay (chromogenic, substrate S-2288); assay type: biochemical
T2 construct: 25 μl human factor VIIa and TF (5 nM and 10 nM, respective final concentrations)
T2 sequence (P08709 61-212): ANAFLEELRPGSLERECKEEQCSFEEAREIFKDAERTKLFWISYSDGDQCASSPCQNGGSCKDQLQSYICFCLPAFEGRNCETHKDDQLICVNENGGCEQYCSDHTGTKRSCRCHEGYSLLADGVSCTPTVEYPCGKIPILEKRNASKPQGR
T2 sequence (P08709 213-466): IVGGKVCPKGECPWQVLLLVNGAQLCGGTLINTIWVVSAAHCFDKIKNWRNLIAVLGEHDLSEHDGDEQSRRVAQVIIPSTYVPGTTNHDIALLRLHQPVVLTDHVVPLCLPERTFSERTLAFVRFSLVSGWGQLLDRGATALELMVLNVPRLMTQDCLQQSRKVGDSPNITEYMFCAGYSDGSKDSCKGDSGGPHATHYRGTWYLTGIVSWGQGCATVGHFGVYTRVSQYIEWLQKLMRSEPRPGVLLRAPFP
T2 sequence (P13726 33-295, further chain): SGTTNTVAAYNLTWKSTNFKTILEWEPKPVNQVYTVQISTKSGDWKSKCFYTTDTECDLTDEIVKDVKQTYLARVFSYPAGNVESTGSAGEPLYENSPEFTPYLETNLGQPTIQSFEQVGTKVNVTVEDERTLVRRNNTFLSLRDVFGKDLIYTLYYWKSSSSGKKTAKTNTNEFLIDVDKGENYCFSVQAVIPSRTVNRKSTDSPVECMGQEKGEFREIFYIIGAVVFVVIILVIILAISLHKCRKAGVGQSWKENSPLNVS
Protocol: as §1, §2
Kinetic assays were conducted at 25° C. in half-area microtiter plates (Costar Corp., Cambridge, Mass.) using a kinetic plate reader (Molecular Devices Spectramax 250).

[2] = inhibition constant for inhibition of factor Xa, 25° C., 0.5 nM enzyme, 140 μM substrate, read-out: Ki (FXa)
[3] = inhibition constant for inhibition of factor VIIa, 5 nM factor VIIa and 10 nM TF, 25° C., 500 μM substrate, read-out: Ki (FVIIa)

T1 sequence (P00742 235-488 limits assumed): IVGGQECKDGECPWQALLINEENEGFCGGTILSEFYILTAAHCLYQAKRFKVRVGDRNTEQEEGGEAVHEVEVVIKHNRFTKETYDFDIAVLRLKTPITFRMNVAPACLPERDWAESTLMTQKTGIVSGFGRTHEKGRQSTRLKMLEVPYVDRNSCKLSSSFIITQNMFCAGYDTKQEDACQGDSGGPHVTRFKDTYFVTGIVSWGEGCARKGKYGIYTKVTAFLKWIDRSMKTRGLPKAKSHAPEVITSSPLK
T1 sequence (P00742 41-179 limits assumed): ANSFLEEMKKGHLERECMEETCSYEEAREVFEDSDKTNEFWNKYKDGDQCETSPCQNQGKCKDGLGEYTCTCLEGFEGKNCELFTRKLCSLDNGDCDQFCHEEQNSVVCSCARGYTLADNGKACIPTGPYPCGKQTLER

| Compound | Ki (human factor Xa; [2]) [nM] | Ki (human factor Xa) [nM] | Ki [1, 3] [nM] | Ki [1] [nM] |
| --- | --- | --- | --- | --- |
| N=C(N)NCCC[C@H](NC(=O)c1ccc(N)c(OCCc2ccc(Cl)cc2Cl)c1)C(N)=O [Example 2, (S)-4-Amino-N-(-carbamoyl-4-guanidinobutyl)-3-[2-(2,4-dichlorophenyl)ethoxy]benzamide] | 76 | – | – | – |
| CCCOC(=O)[C@H](CCCNC(=N)N)NC(=O)c1cc(O)c(Br)c(OCCc2ccc(Cl)cc2Cl)c1 [Example 47] | – | 21 | > 200000 | – |
| CC(=O)Nc1ccc(C(=O)N[C@@H](CCCNC(=N)N)C(N)=O)cc1OCCc1ccc(Cl)cc1Cl [Example 3, (S)-4-Acetylamino-N-(1-carbamoyl-4-guanidinobutyl)-3-[2-(2,4-dichlorophenyl)ethoxy]benzamide] | 670 | – | – | – |
| COc1ccc(C(=O)N[C@@H](CCCNC(=N)N)C(=O)N(C)C)cc1OCCc1ccc(Cl)cc1Cl [Example 48] | – | 560 | > 200000 | – |
| CN(C)C(=O)[C@H](CCCNC(=N)N)NC(=O)c1cc(O)c(Br)c(OCCc2ccc(Cl)cc2Cl)c1 [Example 45] | – | 31 | > 200000 | – |
| N=C(N)NCCC[C@H](NC(=O)c1ccc([N+](=O)[O-])c(OCCc2ccc(Cl)cc2)c1)C(N)=O [Example 11] | – | 192 | – | – |
| N=C(N)NCCC[C@H](NC(=O)c1ccc([N+](=O)[O-])c(OCCc2ccc(Cl)cc2Cl)c1)C(N)=O [Example 1, (S)-4-Nitro-N-(1-carbamoyl-4-guanidinobutyl)-3-[2-(2,4-dichlorophenyl)ethoxy]benzamide] | – | 48 | 188000 | – |
| N=C(N)NCCC[C@H](NC(=O)c1cc(O)c(Br)c(OCCc2ccc(Cl)cc2Cl)c1)C(N)=O [Example 5, (S)-4-Bromo-N-(1-carbamoyl-4-guanidinobutyl)-3-[2-(2,4-dichlorophenyl)-ethoxy]-5-hydroxybenzamide] | – | 18 | 58000 | – |
| N=C(N)NCCC[C@H](NC(=O)c1ccc(NC(=O)CCC(=O)O)c(OCCc2ccc(Cl)cc2Cl)c1)C(N)=O [Example 4, (S)-N-{4-(1-Carbamoyl-4-guanidinobutylcarbamoyl)-2-[2-(2,4-dichlorophenyl)ethoxy]phenyl}succinamic Acid] | – | 354 | 42000 | – |
| N=C(N)NCCC[C@H](NC(=O)c1cc(OCCc2ccc(Cl)cc2Cl)c2ccccc2n1)C(N)=O [Example 34] | – | 750 | 9800 | – |
| N=C(N)NCCC[C@H](NC(=O)c1cccc(OCCc2ccc(Cl)cc2)c1)C(N)=O [Example 8] | – | 1100 | – | – |
| N=C(N)NCCC[C@H](NC(=O)c1cc(O)c(Br)c(OCCc2ccc(Cl)cc2Cl)c1)C(=O)O [Example 46] | – | 59 | > 200000 | – |
| Cc1c(O)cc(C(=O)N[C@@H](CCCNC(=N)N)C(N)=O)cc1OCCc1ccc(Cl)cc1Cl [Example 6, (S)-N-(1-Carbamoyl-4-guanidinobutyl)-3-[2-(2,4-dichlorophenyl)ethoxy]-5-hydroxy-4-methylbenzamide] | – | 38 | 7500 | – |
| Cc1cc(C)c(CCOc2cc(C(=O)N[C@@H](CCCNC(=N)N)C(N)=O)nc3ccccc23)c(C)c1 [Example 32] | – | 13000 | – | 13000 |
| Cc1ccc(CCOc2cccc(C(=O)N[C@@H](CCCNC(=N)N)C(N)=O)c2)cc1 [Example 16] | – | 6150 | – | – |
| CCCOC(=O)[C@H](CCCNC(=N)N)NC(=O)c1ccc(OC)c(OCCc2ccc(Cl)cc2Cl)c1 [Example 50] | – | 729 | > 200000 | – |
| N=C(N)NCCC[C@H](NC(=O)c1cc(O)c(Br)c(OCCc2ccc(Cl)cc2Cl)c1)C(=O)NCc1cccnc1 [Example 39, (S)-4-Bromo-3-[2-(2,4-dichlorophenyl)ethoxy]-N-{4-guanidino-1-[(pyridin-3-ylmethyl)carbamoyl]butyl}-5-hydroxybenzamide] | – | 445 | > 200000 | – |
